From US20140357713A1, “ANTIMICROBIAL COMPOUNDS AND METHODS OF USE” (NexMed Holdings, Inc., priority 2012, published 2014)
Converted amounts (≈) assume the structure as drawn. Like-named read-outs stand apart in the source and are kept apart here. Blank lines part the entries; values can stand above or below the compound they belong to.

Experiments:
pH (Table 1) = assay type: physicochemical; details: methanesulfonate
[1] = test system: Escherichia coli (ATCC 25922); test: Minimum inhibitory concentration (MIC) assay, Example 33; assay type: cell-based
Method: (§1) Thirty compounds were tested for antimicrobial activity using standard procedures and standard strains for both the minimum inhibitory concentration (MIC) assay and a time kill study. Both the MIC assay and the time kill study were performed according to Clinical and Laboratory Standards Institute (CLSI) guidelines. Three bacteria strains, Escherichia coli (ATCC 25922), Pseudomonas aeruginosa (ATCC 27853), Staphulococcus aureus (ATCC 29213), and two fungus strains, Candida albicans (ATCC 90029) and Aspergillus niger (CMCC 98003), were used in the experiments.
(§2) Preparation of cultures. Before the experiment, two days for the bacteria strains and five days for fungus strains, an aliquot was removed from the cultures frozen at −80° C. Medium was added to the surface of an appropriate agar plate and streaked with the aliquot. The plate was incubated for 20 to 24 hrs at 35±2° C. for bacteria or for 5 days at 26-30° C. in incubator for fungus. From the resulting growth on each plate, one isolated colony of similar morphology was selected and re-streaked onto a fresh agar plate using a sterile disposable loop. The plate was incubated 20 to 24 hrs at 35±2° C. or for 5 days at 26-30° C. in an incubator.
(§3) Preparation of Assay Plates with Medium and Drugs. On the day of the assay, CAMHB medium or RPMI 1640 medium was removed from 4′C storage and allowed to reach room temperature. Ninety microliters (μL) of room temperature CAMHB or RPMI 1640 (supplemented with the appropriate concentration of DMSO, if required) were added to rows B-G of each 96-well microtiter plate. Using a pipette, duplicate 180 μL aliquots of each drug stock solution were added to column 1 (e.g. A1 and B1 or C1 and D1 or E1 and F1 or G1 and H1). Using a multichannel pipette or the Provision 2000 liquid handler, serial 2-fold dilutions (90 μL) were performed in each row across the plate to row G. Eighty μL of compounds dilutions were transferred to a 96-deep well plate. Medium, 1,520 μL of CAMHB or RPMI 1640, was added to each well. The contents of the wells were mixed thoroughly. A 50 μL aliquot of each of the resulting mixtures was transferred to a 96-well assay plate.
(§4) For bacteria, a sterile inoculating loop was used to transfer growth from an agar plate culture into about 5 mL of test medium. Using a turbidity meter, this inoculum was adjusted so that its density (600 nm) was equivalent to a 0.5 McFarland barium sulfate standard (0.08-0.13). The resulting suspension was diluted 1:100 into medium to obtain two times test inoculums.
(§5) For Aspergillus niger, sporulating colonies were covered with RPMI 1640, and a suspension was prepared by gently probing the colonies with the tip of a transfer pipette. The suspension was transferred to a sterile tube and mixed with a vortex mixer for 15 seconds. The densities at 530 nm were adjusted to 0.09-0.13 for each sample. The resulting suspension was diluted 1:50 with the medium to obtain two times test inoculums. Fifty μL/well of this inoculum suspension was added to wells of drug-containing plates (1:2 dilution). Plates were incubated at 35° C. for the appropriate times. The MIC was read and recorded according to CLSI guidelines.
(§6) The MIC values for thirty compounds against Escherichia coli, Pseudomonas aeruginosa, Staphulococcus aureus, Candida albicans, and Aspergillus niger were recorded and are presented in Table 3 and Table 4.

[2] = test system: Pseudomonas aeruginosa (ATCC 27853); test: as above; assay type: cell-based
Method: as §1, §2, §3, §4, §5, §6

[3] = test system: Staphulococcus aureus (ATCC 29213); test: as above; assay type: cell-based, Staphylococcus aureus
Method: as §1, §2, §3, §4, §5, §6

[4] = test system: Candida albicans (ATCC 90029); test: as above; assay type: cell-based
Method: as §1, §2, §3
For Candida albicans, a sterile inoculating loop was used to transfer growth from an agar plate culture into a tube with RPMI1640 medium. This inoculum was adjusted so that its density at 530 nm was in the ranges from 0.08 to 0.13. The resulting suspension was diluted 1:50 and further diluted 1:20 with the medium to obtain two times test inoculums.
as §5, §6

[5] = test system: Aspergillus niger (CMCC 98003); test: as above; assay type: cell-based
Method: as §1, §2, §3, §5, §6

[6] = test system: Escherichia coli (ATCC 25922); test: Time kill study, Example 33 (0 to 5 min); assay type: cell-based; details: 1×MIC, methanesulfonate
Method: as §1
(§7) The viable counts in Log10 CFU/mL at each time point were recorded.
(§8) Time kill studies. Strain suspensions were prepared as described above for the MIC test, and strain suspensions and compound solutions were mixed in the same volume. Samples were removed at specified times including 0 min, 30 sec, 1 min and 5 mins, were diluted in the test medium and streaked on agar. Colonies were counted after 24 to 48 hrs of incubation. […]

[7] = test system: Pseudomonas aeruginosa (ATCC 27853); test: Time kill study, Example 33 (0 to 5 min); assay type: cell-based; details: 1×MIC, methanesulfonate
Method: as §1, §7, §8

[8] = test system: Staphylococcus aureus (ATCC 29213); test: Time kill study, Example 33 (0 to 5 min); assay type: cell-based; details: 1×MIC, methanesulfonate
Method: as §1, §7, §8

[9] = Table 19 summary, methanesulfonate

SMILES: CCCCCCCCCCCCOC(=O)C(C)N(C)C (stereo not drawn) [Nex-22, Dodecyl 2-(dimethylamino)propanoate methanesulfonate]
pH (pH (Table 1)): 3.25
MIC ([1]; Table 19 summary of Example 33 and Example 35, methanesulfonate): 3130 µg/mL
MIC E. coli ([1]; n = 1, methanesulfonate): 3130 µg/mL
MIC E. coli ([1]; n = 2, methanesulfonate): 3130 µg/mL
MIC [2, 9]: 6250 µg/mL
MIC P. aeruginosa ([2]; n = 1, methanesulfonate): 6250 µg/mL
MIC P. aeruginosa ([2]; n = 2, methanesulfonate): 6250 µg/mL
MIC [3, 9]: 3130 µg/mL
MIC S. aureus ([3]; n = 1, methanesulfonate): 3130 µg/mL
MIC S. aureus ([3]; n = 2, methanesulfonate): 3130 µg/mL
MIC [4, 9]: >12500 µg/mL
MIC Candida albicans ([4]; n = 1, methanesulfonate): >12500 µg/mL
MIC Candida albicans ([4]; n = 2, methanesulfonate): >12500 µg/mL
MIC [5, 9]: >12500 µg/mL
MIC Aspergillus niger ([5]; n = 1, methanesulfonate): >12500 µg/mL
Viable counts, Escherichia coli time kill study ([6]; 0.5 min): 4.6 Log10 CFU/mL
Viable counts, Escherichia coli time kill study ([6]; 1 min): <3.70 Log10 CFU/mL
Viable counts, Escherichia coli time kill study ([6]; 5 min): <3.52 Log10 CFU/mL
Viable counts, Escherichia coli time kill study ([6]; time 0): 5.78 Log10 CFU/mL
Viable counts, Pseudomonas aeruginosa time kill study ([7]; 0.5 min): <4.0 Log10 CFU/mL
Viable counts, Pseudomonas aeruginosa time kill study ([7]; 1 min): <3.70 Log10 CFU/mL
Viable counts, Pseudomonas aeruginosa time kill study ([7]; time 0): 5.64 Log10 CFU/mL
Viable counts, Staphylococcus aureus time kill study ([8]; 0.5 min): 6.2 Log10 CFU/mL
Viable counts, Staphylococcus aureus time kill study ([8]; 1 min): 6.18 Log10 CFU/mL
Viable counts, Staphylococcus aureus time kill study ([8]; 5 min): 6.21 Log10 CFU/mL
Viable counts, Staphylococcus aureus time kill study ([8]; time 0): 6.08 Log10 CFU/mL

MIC ([1]; Escherichia coli, ATCC25922, n = 1, read-out: MIC E. coli): 2 µg/mL (≈ 3.42 µM)
MIC ([1]; Escherichia coli, ATCC25922, n = 2, read-out: MIC E. coli): 2 µg/mL (≈ 3.42 µM)
MIC ([2]; Pseudomonas aeruginosa, ATCC27853, n = 1, read-out: MIC P. aeruginosa): 2 µg/mL (≈ 3.42 µM)
MIC ([2]; Pseudomonas aeruginosa, ATCC27853, n = 2, read-out: MIC P. aeruginosa): 2 µg/mL (≈ 3.42 µM)
MIC ([3]; Staphylococcus aureus, ATCC29213, n = 1, read-out: MIC S. aureus): 2 µg/mL (≈ 3.42 µM)
MIC ([3]; Staphylococcus aureus, ATCC29213, n = 2, read-out: MIC S. aureus): 2 µg/mL (≈ 3.42 µM)
SMILES: NCC[C@H](O)C(=O)N[C@@H]1C[C@H](N)[C@@H](O[C@H]2O[C@H](CN)[C@@H](O)[C@H](O)[C@H]2O)[C@H](O)[C@H]1O[C@H]1O[C@H](CO)[C@@H](O)[C@H](N)[C@H]1O [Amikacin, reference compound]

MIC ([4]; Candida albicans, ATCC90029, n = 1, read-out: MIC Candida albicans): 0.25 µg/mL (≈ 0.816 µM)
MIC ([4]; Candida albicans, ATCC90029, n = 2, read-out: MIC Candida albicans): 0.25 µg/mL (≈ 0.816 µM)
MIC ([5]; Aspergillus niger, CMCC98003, n = 1, read-out: MIC Aspergillus niger): > 4000 µg/mL
MIC ([5]; Aspergillus niger, CMCC98003, n = 2, read-out: MIC Aspergillus niger): > 4000 µg/mL
SMILES: OC(Cn1cncn1)(Cn1cncn1)c1ccc(F)cc1F [Fluconazole, reference compound]
